In patent EP2327766B1, “Nitrilases” (BASF Enzymes LLC, priority 2001, dated 2003):

tested on: nitrilase SEQ ID NOS:385, 386, obtained from an environmental sample; experiment: Effect of reaction components on nitrilase activity (2-chloromandelonitrile hydrolysis, non-chiral HPLC); assay type: biochemical, Unknown (obtained from an environmental sample); details: 5 mM additive; 25 mM 2-chloromandelonitrile, 0.1 M phosphate buffer pH 8, 37°C
Excerpt: A vital part of an investigation into process optimization of an enzyme involves the determination of the effects of any compounds which could be present in the enzymatic reaction. For SEQ ID NOS:385, 386, these components were established as the starting material and equilibrium product of the cyanohydrin, 2-chlorobenzaldehyde; the product, 2-chloromandelic acid and the contaminant detected in the substrate, 2-chlorobenzoic acid. […] The presence of trace amounts of triethylamine was also found to be tolerable to the enzyme.
The effect of the various reaction components on the activity of SEQ ID NOS:385, 386 was assessed by addition of various levels of possible inhibitors to the enzyme reaction. […]
• (i) Activity: The effect of the process components on the activity of the enzymes was established by addition of the individual components, 2-chlorobenzaldehyde, 2-chlorobenzoic acid or 2-chloromandelic acid, to the enzymatic reaction. […] The samples were analysed by non-chiral HPLC. • (ii) Stability: The stability of the enzymes to process conditions was monitored by incubation of the enzymes in the presence of the reaction components, 2-chlorobenzaldehyde and 2-chloromandelic acid for predetermined time periods, prior to assay of the enzyme activity under standard conditions. […]

Row | Compound | activity lost upon addition to the reaction
1 | O=Cc1ccccc1Cl [2-chlorobenzaldehyde] | Approximately 70%
2 | O=C(O)c1ccccc1Cl [2-chlorobenzoic acid] | ~40%

tested on: nitrilase SEQ ID NOS:103, 104; experiment: Effect of starting material and product on nitrilase activity (phenylacetaldehyde cyanohydrin hydrolysis); assay type: biochemical, Unknown (obtained from an environmental sample); details: up to levels of 5 mM
Method: The effect of the process components on the activity of the enzymes was established by addition of the individual components to the enzymatic reaction. These components included the starting materials for the nitrile synthesis, aldehyde, cyanide and ammonium, as well as triethylamine, which is added in catalytic amounts to the nitrile synthesis reaction. The concentrations of the reactants were selected with possible process conditions in mind and were adapted to the levels of reactants used in the enzyme assays. In some cases, the solubility of the aldehydes and products was relatively low; in these cases, the highest level of solubility was added to the reactions as the highest level and 10% of this level as the lower value.
The enzymatic reactions were carried out under standard conditions, with addition of one or more of the following components: benzaldehyde, phenylglycine, phenylacetaldehyde, phenyllactic acid, 2-chlorobenzaldehyde, 2-chloromandelic acid, 5-hydroxypentanal, (S)-2-amino-6-hydroxy hexanoic acid, 4-methylleucine, KCN, Triethylamine, NH4Cl. Control reactions were performed under standard conditions, with no additive. The samples were analyzed by non-chiral HPLC.
SEQ ID NOS: 103, 104 was identified as a highly enantioselective nitrilase for the production of (S)- phenyllactic acid. […] The scaled-up enzymatic reaction with an enantiomeric excess (ee) of 95%. […]

Row | Compound | effect on the enzyme activity
3 | O=CCc1ccccc1 [phenylacetaldehyde] | no effect

tested on: Nitrilase II, SEQ ID NOS:103, 104, obtained from an environmental sample; experiment: High throughput nitrilase activity assay, turnover frequency on aryl acetaldehyde cyanohydrins; assay type: biochemical, Unknown (obtained from an environmental sample); details: conditions as in Table 13 (25 mM substrate, 10% MeOH, 37°C, pH 8), except 0.016 mg/mL nitrilase
Excerpt: We next examined the preparation of aryllactic acid derivatives 6 through hydrolysis of the corresponding cyanohydrins 5. Phenyllactic acid and derivatives serve as versatile building blocks for the preparation of numerous biologically active compounds. (Coppola, G.M.; Schuster, H.F. Chiral α-Hydroxy Acids in Enantioselective Synthesis; Wiley-VCH: Weinheim, Germany: 1997.) Upon screening our nitrilase library against the parent cyanohydrin 5a (Ar= phenyl), we found several enzymes that provided 6a with high enantiomeric excess. One enzyme, SEQ ID NOS: 103, 104, was further characterized. […] The highest [drawing 20] enantioselectivity previously reported for biocatalytic conversion of 5 to 6 was 75% ee achieved through a whole cell transformation using a Pseudomonas strain. (Hashimoto, Y.; Kobayashi, E.; Endo, T.; Nishiyama, M.; Horinouchi, S. Biosci. Biotech. Biochem. 1996, 60, 1279.) Table 14. Nitrilase II-catalyzed production of aryllactic acid derivatives and analogues 6a
(§1) Assay solutions consisted of 0-10% (v/v) MeOH in 0.1 M sodium phosphate buffer solution at pH 7 to 9 and temperatures 37°C or 22°C. Specific activities were measured at 5 min transformation time point, unless otherwise noted, and are expressed in units µmol mg^-1 min^-1. Enantiomeric excess and conversion rates were determined by high throughput HPLC analysis comparing enzyme product concentration to standard curves of racemic acid products. Analytical conditions for the products are tabulated below.

Row | Compound | TOF (turnover frequency)
4 | 3-pyridyl acetaldehyde cyanohydrin | 7.2 mol product/mol catalyst/sec
5 | N#CC(O)Cc1cccc2ccccc12 (stereo not shown) [1-napthyl acetaldehyde cyanohydrin] | 40 mol product/mol catalyst/sec
6 | N#CC(O)Cc1ccccc1Br (stereo not shown) [2-bromophenyl acetaldehyde cyanohydrin] | 76 mol product/mol catalyst/sec
7 | N#CC(O)Cc1ccccc1F (stereo not shown) [2-fluorophenyl acetaldehyde cyanohydrin] | 97 mol product/mol catalyst/sec
8 | Cc1ccccc1CC(O)C#N (stereo not shown) [2-methylphenyl acetaldehyde cyanohydrin] | 100 mol product/mol catalyst/sec
9 | N#CC(O)Cc1ccccn1 (stereo not shown) [2-pyridyl acetaldehyde cyanohydrin] | 6.6 mol product/mol catalyst/sec
10 | N#CC(O)Cc1cccs1 (stereo not shown) [2-thienyl acetaldehyde cyanohydrin] | 2.1 mol product/mol catalyst/sec
11 | Cc1cccc(CC(O)C#N)c1 (stereo not shown) [3-methylphenyl acetaldehyde cyanohydrin] | 13 mol product/mol catalyst/sec
12 | N#CC(O)Cc1ccsc1 (stereo not shown) [3-thienyl acetaldehyde cyanohydrin] | 1.4 mol product/mol catalyst/sec
13 | N#CC(O)Cc1cccc(F)c1 (stereo not shown) [3-tluorophenyl acetaldehyde cyanohydrin] | 14 mol product/mol catalyst/sec
14 | N#CC(O)Cc1ccccc1 (stereo not shown) [phenyl acetaldehyde cyanohydrin] | 16 mol product/mol catalyst/sec

tested on: nitrilase SEQ ID NOS:385, 386 (nitrilase I), obtained from an environmental sample; experiment: High throughput nitrilase activity assay, turnover frequency on mandelonitrile derivatives; assay type: biochemical, Unknown (obtained from an environmental sample); details: 25 mM substrate, 0.12 mg/mL enzyme, 10% MeOH (v/v) 0.1 M phosphate buffer, 37°C, pH 8; 5 min timepoint
Method: The nitrilase library was screened for activity and enantioselectivity in the hydrolysis of mandelonitrile (3a, Ar = phenyl) to mandelic acid. […] Under standard conditions using 25 mM 3a and 0.12 mg/mL enzyme in 10% MeOH (v/v) 0.1 M phosphate buffer at 37°C and pH 8, (R)-mandelic acid was formed quantitatively within 10 min and with 98% ee. To confirm synthetic utility, the reaction was performed using 1.0 g 3a (50 mM) and 9 mg nitrilase (0.06 mg/mL nitrilase I); after 3 h (R)-mandelic acid was isolated in high yield (0.93 g, 86%) and again with 98% ee. [drawing 19] Table 13. SEQ ID NOS:385, 386-catalyzed production of mandelic acid derivatives and analogues 4a
as §1, with “Activity assays were conducted using 25 mM (-3 mg/mL) substrate, 0.1 mg/mL nitrilase in 0.25 mL of assay solution. Assay” for “Assay”

Row | Compound | TOF (turnover frequency)
15 | N#CC(O)c1ccccc1Br (stereo not shown) [2-bromomandelonitrile] | 5.6 mol product/mol catalyst/sec
16 | N#CC(O)c1ccccc1Cl (stereo not shown) [2-chloro mandelonitrile] | 1.7 mol product/mol catalyst/sec
17 | Cc1ccccc1C(O)C#N (stereo not shown) [2-methylmandelonitrile] | 5.1 mol product/mol catalyst/sec
18 | N#CC(O)c1cccc(Br)c1 (stereo not shown) [3-bromomandelonitrile] | 1.7 mol product/mol catalyst/sec
19 | N#CC(O)c1cccc(Cl)c1 (stereo not shown) [3-chloromandelonitrile] | 3.4 mol product/mol catalyst/sec
20 | N#CC(O)c1cccnc1 (stereo not shown) [3-pyridyl cyanohydrin] | 18.6 mol product/mol catalyst/sec
21 | N#CC(O)c1ccsc1 (stereo not shown) [3-thienyl cyanohydrin] | 16.8 mol product/mol catalyst/sec
22 | N#CC(O)c1ccc(F)cc1 (stereo not shown) [4-fluoromandelonitrile] | 11.8 mol product/mol catalyst/sec
23 | N#CC(O)c1ccccc1 (stereo not shown) [mandelonitrile] | 28 mol product/mol catalyst/sec

same assay, conditions: entries 8-9: pH 9 and 5 mM substrate concentration; otherwise standard conditions

Row | Compound | TOF (turnover frequency)
24 | N#CC(O)c1cccc2ccccc12 (stereo not shown) [1-naphthyl cyanohydrin] | 2.8 mol product/mol catalyst/sec
25 | N#CC(O)c1ccc2ccccc2c1 (stereo not shown) [2-naphthyl cyanohydrin] | 2.8 mol product/mol catalyst/sec

tested on: nitrilase expressing subclones SEQ ID NOS:101, 102, SEQ ID NOS:187, 188, SEQ ID NOS:29, 30; experiment: Growth of nitrilase expressing subclones in the presence of HPA nitrile; assay type: cell-based; details: cells grown at pH 7
Method: In preparation for assay automation, nitrilase expressing cells were added into microtiter plate containing M9 0.2% glucose,0.25 mM IPTG media by florescence activated cell sorting (FACS). Three nitrilase expressing subclones, and the empty vector control were evaluated: SEQ ID NOS:101, 102, SEQ ID NOS:187, 188, SEQ ID NOS:29, 30 and the empty vector. […] Thus colony picking is currently being evaluated as an alternative method to add cells into microtiter plates. The evaporative loss from an uncovered 1536-well microtiter plate is approximately 30% per day in the robot incubator (incubator conditions: 37°C at 85% relative humidity (RH)). Incubation in the 95% RH incubator reduced evaporative loss to 1% per day.
The ability of the three subclones to grow in the presence of up to 3.5 mM of nitrile was established using HPA nitrile. Growth rates were only slightly retarded (less that 30%). […] Only S was evaluated as the enzymes are S-selective. The reaction plate was read at 10 minute intervals, with 40 minutes showing the best linearity.

Row | Compound | concentration above which cell growth is significantly inhibited
26 | CC(C)(CO)C(N)C#N (stereo not shown) [HPA, Hydroxypivaldehyde aminonitrile] | above 5 mM

same assay, conditions: cells grown at pH 8

Row | Compound | concentration above which growth was inhibited
27 | CC(C)(CO)C(N)C#N (stereo not shown) [HPA, Hydroxypivaldehyde aminonitrile] | above 0.1 mM

same assay, conditions: in the presence of up to 3.5 mM of nitrile

Row | Compound | growth rates retarded
28 | CC(C)(CO)C(N)C#N (stereo not shown) [HPA, Hydroxypivaldehyde aminonitrile] | < 30%
